# Reference: patent publication US6156700A, “3-(1,2-Benzisothiazol- and isoxazol-5-yl)-2,4(1H,3H)-pyrimidinedione or thione and 3-(1,2-benzisothiazol- and isoxazol-5-yl)-4(3H)-pyrimidinone or thione herbicidal agents” (American Cyanmid Company, priority 1998, dated 2000)
# What was measured:
# [1] = test system: ECHORC Watergrass (Calif.); test: Postemergence weed control, flooded paddy (Table IV); format: in vivo, Echinochloa oryzoides; parameters: scale not given here
# In short: (§1)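 Flooded greenhouse pots; water 1.5–3 cm over soil throughout. Weeds 3–5 cm, rice 1.5–2.5 leaf. Dose ~0.0313–0.500 kg/ha a.i., aqueous/acetone 50/50 v/v into flood water. Visual herbicidal rating at 3–4 wk.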
# [2] = test system: Lambsquarters, Common, Chenopodium album; test: Preemergence herbicidal evaluation, CHEAL; format: in vivo, L.; conditions: 0.2500 kg/ha
# In short: (§2)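 Seeds mixed with potting soil were planted on about one inch of soil in cups, then sprayed with test compound in aqueous acetone at about 0.0156 to 0.500 kg per hectare. Plants were grown under greenhouse conditions and rated visually 4–5 weeks after treatment on a 0–9 scale against a control.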
# [3] = test system: Morningglory, Ivyleaf, Ipomoea hederacea; test: Preemergence herbicidal evaluation, IPOHE; format: in vivo, (L.) Jacq.; conditions: 0.2500 kg/ha
# In short: as §2
# [4] = test system: Ragweed, Common, Ambrosia artemisifolia; test: Postemergence herbicidal evaluation, AMBEL; format: in vivo, L.
# In short: (§3)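 Approximately two-week-old seedlings received a spray of active compound equivalent to about 0.0157–0.500 kg/ha. The carrier was acetone/water (50/50) with 0.5% TWEEN 20. Plants were kept on greenhouse benches and assessed 0–9 versus control after four to five weeks.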
# [5] = test system: Morningglory, Ivyleaf, Ipomoea hederacea; test: Postemergence herbicidal evaluation, IPOHE; format: in vivo, (L.) Jacq.; conditions: 0.0630 kg/ha
# In short: as §3
# CYPIR Rice Flatsedge = test: Postemergence weed control, flooded paddy (Table IV); format: in vivo, Cyperus iria; parameters: scale not given here
# In short: as §1
# [6] = test system: SAGPY Arrowhead (Pygmaea); test: as above; format: in vivo, Sagittaria pygmaea; parameters: scale not given here
# In short: as §1
# ORYSAT Rice, Tebonnet [7] = test: Rice tolerance, flooded paddy (Table IV); format: in vivo, Oryza sativa; parameters: scale not given here; conditions: crop tolerance
# In short: as §1
# [8] = test system: Soybean, Williams, Glycine max; test: Preemergence herbicidal evaluation, GLXMAW; format: in vivo, (L.) Merr. cv Williams; conditions: 0.2500 kg/ha
# In short: as §2
# Galium, Galium aparine [9] = test: Postemergence herbicidal evaluation, GALAP; format: in vivo
# In short: as §3
# [10] = test system: Lambsquarters, Common, Chenopodium album; test: Postemergence herbicidal evaluation, CHEAL; format: in vivo, L.
# In short: as §3
# ORYSAT Rice, Tebonnet [11] = test: Tolerance of transplanted rice to post-transplant application (Table III); format: in vivo, Oryza sativa; parameters: scale not given here; conditions: crop tolerance
# Method: The tolerance of transplanted rice to post-transplanted herbicide applications is determined as follows: two ten-day-old rice seedlings (cv. Tebonnet) are transplanted into silt loam soil in 32 oz. plastic containers with a diameter of 10.5 cm and no drainage holes. After transplanting, the containers are flooded and the water level is maintained at 1.5 to 3 cm above the soil surface. Three days after transplanting, the flooded soil surface of the containers is treated with the selected aqueous/acetone 50/50 v/v mixture containing the test compounds to provide the equivalent of about 0.0313 to 0.500 kg/ha of active ingredient. The treated containers are placed on greenhouse benches, watered such that the water level is maintained as stated above, and cared for in accordance with conventional greenhouse procedures. Three to four weeks after treatment, the test is terminated and each container is examined and herbicidal effect rated according to the rating system provided in Example 185. The compounds evaluated are reported by compound number given in Example 185.
# [12] = test system: Barnyardgrass, Echinochloa crus-galli; test: Postemergence herbicidal evaluation, ECHCG; format: in vivo, (L.) Beau
# In short: as §3
# Soybean, Glycine max [13] = test: Postemergence herbicidal evaluation, GLXMA; format: in vivo, (L.) Merr.; conditions: 0.2500 kg/ha
# Method: In the tests, seedling plants are grown in jiffy flats for about two weeks. The test compounds are dispersed in 50/50 acetone/water mixtures containing 0.5% TWEEN®20, a polyoxyethylene sorbitan monolaurate surfactant of Atlas Chemical Industries, in sufficient quantities to provide the equivalent of about 0.0157 kg to 0.500 kg per hectare of active compound when applied to the plants through a spray nozzle operating at 40 psi for a predetermined time. After spraying, the plants are placed on greenhouse benches and are cared for in accordance with conventional greenhouse procedures. From four to five weeks after treatment, the seedling plants are examined and rated according to the rating system set forth below. Where more than one test is involved for a given compound, the data are averaged.
# (§4) Results of herbicide evaluation are expressed on a rating scale (0-9). The scale is based upon a visual observation of plant stand, vigor, malformation, size, chlorosis and overall plant appearance as compared with a control.
# Soybean, Glycine max [14] = test: Preemergence herbicidal evaluation, GLXMA; format: in vivo, (L.) Merr.; conditions: 0.2500 kg/ha
# Description: as §4
# The preemergence herbicidal activity of the test compounds of the present invention is exemplified by the following tests in which the seeds of a variety of monocotyledonous and dicotyledonous plants are separately mixed with potting soil and planted on top of approximately one inch of soil in separate pint cups. After planting, the cups are sprayed with the selected aqueous acetone solution containing test compound in sufficient quantity to provide the equivalent of about 0.0156 to 0.500 kg per hectare of test compound per cup. The treated cups are then placed on greenhouse benches, watered and cared for in accordance with conventional greenhouse procedures. From four to five weeks after treatment, the tests are terminated and each cup is examined and rated according to the rating system provided in Example 185.
# The compounds evaluated are reported by compound number given in Example 185.
# [15] = test system: Soybean, Williams, Glycine max; test: Postemergence herbicidal evaluation, GLXMAW; format: in vivo, (L.) Merr. cv Williams; conditions: 0.0630 kg/ha
# In short: as §3
# [16] = test system: Velvetleaf, Abutilon theophrasti; test: Preemergence herbicidal evaluation, ABUTH; format: in vivo, Medic.; conditions: 0.2500 kg/ha
# In short: as §2
# [17] = test system: Foxtail, Green, Setaria viridis; test: Postemergence herbicidal evaluation, SETVI; format: in vivo, (L.) Beau
# In short: as §3
# Galium, Galium aparine [18] = test: Preemergence herbicidal evaluation, GALAP; format: in vivo; conditions: 0.2500 kg/ha
# In short: as §2
Compound,herbicidal effect rating ([1]; 0.1250 kg/ha),herbicidal effect rating ([1]; 0.2500 kg/ha),herbicidal effect rating ([1]; 0.5000 kg/ha),herbicide rating (0-9) [2],herbicide rating (0-9) [3],herbicide rating (0-9) ([4]; 0.0630 kg/ha),herbicide rating (0-9) ([4]; 0.2500 kg/ha),herbicide rating (0-9) [5],herbicidal effect rating (CYPIR Rice Flatsedge; 0.1250 kg/ha),herbicidal effect rating (CYPIR Rice Flatsedge; 0.2500 kg/ha),herbicidal effect rating (CYPIR Rice Flatsedge; 0.5000 kg/ha),herbicidal effect rating ([6]; 0.1250 kg/ha),herbicidal effect rating ([6]; 0.2500 kg/ha),herbicidal effect rating ([6]; 0.5000 kg/ha),"herbicidal effect rating (ORYSAT Rice, Tebonnet [7]; 0.1250 kg/ha)","herbicidal effect rating (ORYSAT Rice, Tebonnet [7]; 0.2500 kg/ha)","herbicidal effect rating (ORYSAT Rice, Tebonnet [7]; 0.5000 kg/ha)",herbicide rating (0-9) [8],"herbicide rating (0-9) (Galium, Galium aparine [9]; 0.0630 kg/ha)",herbicide rating (0-9) ([10]; 0.0630 kg/ha),also measured
"COC(=O)COc1ccc(C)cc1-c1nsc2ccc(-n3c(=O)cc(C(F)(F)F)n(C)c3=O)cc12 [Compound 2, Methyl {{2-{5-[3,6-dihydro-3-methyl-4-(trifluoromethyl) -2,6-dioxo-1(2H)-pyrimidinyl]-1,2-benzisothiazol-3-yl]-p-tolyl}oxy}acetate]",7.0,9.0,9.0,9.0,9.0,9.0,9.0,9.0,9.0,9.0,9.0,0.0,2.0,4.0,3.0,7.0,8.0,8.5,9.0,9.0,"herbicide rating (0-9) (Galium, Galium aparine [9]; 0.2500 kg/ha): 9.0; herbicide rating (0-9) ([10]; 0.2500 kg/ha): 9.0; herbicidal effect rating (ORYSAT Rice, Tebonnet [11]; 0.0313 kg/ha): 2.0; herbicidal effect rating (ORYSAT Rice, Tebonnet [11]; 0.0625 kg/ha): 3.0; herbicidal effect rating (ORYSAT Rice, Tebonnet [11]; 0.1250 kg/ha): 3.0; herbicidal effect rating (ORYSAT Rice, Tebonnet [11]; 0.2500 kg/ha): 5.0; herbicidal effect rating (ORYSAT Rice, Tebonnet [11]; 0.5000 kg/ha): 9.0; herbicide rating (0-9) ([12]; 0.0630 kg/ha): 9.0; herbicide rating (0-9) ([12]; 0.2500 kg/ha): 9.0; herbicide rating (0-9) (Soybean, Glycine max [13]): 9.0; herbicide rating (0-9) (Soybean, Glycine max [14]): 7.0; herbicide rating (0-9) [15]: 8.8; herbicide rating (0-9) [16]: 9.0; herbicide rating (0-9) ([17]; 0.0630 kg/ha): 9.0; herbicide rating (0-9) ([17]; 0.2500 kg/ha): 9.0; herbicide rating (0-9) (Galium, Galium aparine [18]): 9.0"
COC(=O)C(C)Oc1ccc(C)cc1-c1nsc2ccc(-n3c(=O)cc(C(F)(F)F)n(C)c3=O)cc12 (centres unmarked) [Compound 3],0.0,2.0,4.0,9.0,9.0,9.0,9.0,9.0,9.0,9.0,9.0,0.0,0.0,0.0,3.0,3.0,3.0,5.0,9.0,9.0,"herbicide rating (0-9) ([10]; 0.2500 kg/ha): 9.0; herbicidal effect rating (ORYSAT Rice, Tebonnet [11]; 0.0313 kg/ha): 2.0; herbicidal effect rating (ORYSAT Rice, Tebonnet [11]; 0.0625 kg/ha): 2.0; herbicidal effect rating (ORYSAT Rice, Tebonnet [11]; 0.1250 kg/ha): 3.0; herbicidal effect rating (ORYSAT Rice, Tebonnet [11]; 0.2500 kg/ha): 4.0; herbicidal effect rating (ORYSAT Rice, Tebonnet [11]; 0.5000 kg/ha): 4.0; herbicide rating (0-9) ([12]; 0.0630 kg/ha): 9.0; herbicide rating (0-9) ([12]; 0.2500 kg/ha): 9.0; herbicide rating (0-9) (Soybean, Glycine max [13]): 7.5; herbicide rating (0-9) (Soybean, Glycine max [14]): 4.0; herbicide rating (0-9) [15]: 7.0; herbicide rating (0-9) [16]: 9.0; herbicide rating (0-9) ([17]; 0.0630 kg/ha): 9.0; herbicide rating (0-9) ([17]; 0.2500 kg/ha): 9.0; herbicide rating (0-9) (Galium, Galium aparine [18]): 7.6"
